# Biological target: HPCS, 3-hydroxypropionyl-CoA synthetase (HPCS/HPCD complex) (Metallosphaera sedula, UniProt A4YGR1)
# Details: ATP 3 mM, CoA 0.1 mM, MgCl2 20 mM, NADPH 0.5 mM, pH 6.5, 65°C
# HPCS, 3-hydroxypropionyl-CoA synthetase (HPCS/HPCD complex), sequence (A4YGR1 whole entry): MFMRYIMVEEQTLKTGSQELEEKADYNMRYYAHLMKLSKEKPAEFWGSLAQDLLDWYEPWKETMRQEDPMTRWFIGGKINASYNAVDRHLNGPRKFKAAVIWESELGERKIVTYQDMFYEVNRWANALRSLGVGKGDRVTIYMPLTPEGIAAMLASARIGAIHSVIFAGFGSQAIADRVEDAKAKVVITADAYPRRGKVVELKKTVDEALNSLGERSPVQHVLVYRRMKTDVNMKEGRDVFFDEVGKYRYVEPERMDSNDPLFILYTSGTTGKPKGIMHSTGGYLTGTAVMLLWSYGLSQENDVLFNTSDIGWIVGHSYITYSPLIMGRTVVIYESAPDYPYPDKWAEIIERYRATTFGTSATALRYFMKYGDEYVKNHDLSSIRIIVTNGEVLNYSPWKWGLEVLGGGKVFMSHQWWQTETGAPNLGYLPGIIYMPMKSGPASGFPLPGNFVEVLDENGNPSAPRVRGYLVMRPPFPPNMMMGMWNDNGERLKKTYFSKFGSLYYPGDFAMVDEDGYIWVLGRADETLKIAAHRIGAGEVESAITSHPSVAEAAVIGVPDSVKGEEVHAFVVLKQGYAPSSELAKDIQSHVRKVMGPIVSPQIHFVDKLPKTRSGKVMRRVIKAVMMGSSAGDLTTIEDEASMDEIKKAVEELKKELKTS
# HPCS, 3-hydroxypropionyl-CoA synthetase (HPCS/HPCD complex), sequence (A4YI89 whole entry partner): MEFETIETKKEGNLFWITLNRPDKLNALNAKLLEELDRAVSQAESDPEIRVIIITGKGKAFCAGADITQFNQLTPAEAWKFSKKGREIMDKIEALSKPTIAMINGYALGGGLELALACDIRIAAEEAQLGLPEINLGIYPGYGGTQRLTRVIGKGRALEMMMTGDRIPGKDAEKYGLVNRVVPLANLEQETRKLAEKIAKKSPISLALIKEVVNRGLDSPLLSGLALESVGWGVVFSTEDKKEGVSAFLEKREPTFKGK
structure (smiles),measurement,value
O=C(O)CCO [3-Hydroxypropionate],HPLC of propionyl-CoA formed with HPCS/HPCD and ACR,"Formation of propionyl-CoA from 3HP by HPCS, HDCD, and ACR"

# Reference: paper PMC5433351 (Metabolic engineering, 2016)
